The numbers were not newly measured in patent EP1964566A1, “PREPARATION WITH IMPROVED BIOABSORBABILITY OF SAPROPTERIN HYDROCHLORIDE” (Asubio Pharma Co., Ltd., priority 2005, dated 2007), which cites them from elsewhere.

The conditions of the series: in vivo, po.

For sapropterin hydrochloride, the bioavailability is 1-2%.
